US20050069887A1, “Dna synthesis promoters dna polymerase-associated factors and utilization thereof” (priority 2001, published 2005)
Like-named read-outs stand apart in the source and are kept apart here.

Key:
KOD-plus DNA polymerase [1] = target: T1, KOD-plus DNA polymerase (Thermococcus kodakarensis, UniProt P77933, DEL407-766/DEL853-1389); type: biochemical, Thermococcus kodakaraensis KOD1
T1 construct: purchased Toyobo
Protocol: The effect produced by the addition of oxalate ion to a hot start enzyme was investigated using a hot start enzyme KOD-plus DNA polymerase containing KOD α-type enzyme) and two kinds of KOD antibodies. The PCR buffer supplied with KOD-plus (manufactured by Toyobo), 0.2 mM dNTPs and 0.3 μM of a primer pair of SEQ ID Nos:8 and 9 were used. PCR was performed using 2.5 U KOD-plus DNA polymerase and 20 ng of Genomic DNA derived from human cell line K562 as a template to investigate the influence of varying the concentration of oxalate ion added on the PCR results. The PCR conditions were as follows: 1 preliminary reaction of 94° C. for 2 minutes, and then 35 cycles of 94° C. for 15 seconds, 60° C. for 30 seconds and 68° C. for 8.5 minutes. The PCR was performed using GeneAmp2400 (PE Applied Biosystems).

EX-Taq DNA polymerase = test: PCR using EX-Taq DNA polymerase with added salts (Examples 1-1 to 1-3); type: biochemical
Protocol: The effect produced by the addition of oxalate ions was investigated in the PCR using EX-Taq DNA polymerase. A PCR buffer supplied with EX-Taq (TAKARA) and 0.3 μM of a pair of primers of SEQ ID Nos:8 and 9 and 0.2 mM dNTPs were used. PCR was performed by using 1.0 U EX-Taq DNA polymerase and 20 ng of genomic DNA derived from human cell line K562 as a template, with the influence on the PCR result caused by varying the concentration of added oxalate ion being investigated. The PCR conditions were as follows: 1 preliminary reaction of 94° C. for 2 minutes, and then 35 cycles of 94° C. for 15 seconds, 60° C. for 30 seconds and 68° C. for 8.5 minutes. This PCR amplification was performed by using GeneAmp2400 (PE Applied Biosystems).
Salts (potassium chloride, potassium acetate, potassium oxalate, sodium oxalate, potassium sulfate) were investigated for their effectiveness in PCR using EX-Taq DNA polymerase under the same conditions as Example 1. Each salts was used in an amount of 4 to 6 mM of ion equivalent

nPfu DNA polymerase = target: T2, nPfu DNA polymerase (Pyrococcus furiosus, UniProt P61875); test: PCR using nPfu DNA polymerase with added salts (Examples 1-5, 1-6); type: biochemical; conditions: for amplification of target DNA (electrophoresis pattern): salt at 4-6 mM of ion equivalent, FIG. 7
T2 construct: α-Type Enzyme (Native Pfu); purchased STRATAGENE
T2 sequence (P61875 1-775): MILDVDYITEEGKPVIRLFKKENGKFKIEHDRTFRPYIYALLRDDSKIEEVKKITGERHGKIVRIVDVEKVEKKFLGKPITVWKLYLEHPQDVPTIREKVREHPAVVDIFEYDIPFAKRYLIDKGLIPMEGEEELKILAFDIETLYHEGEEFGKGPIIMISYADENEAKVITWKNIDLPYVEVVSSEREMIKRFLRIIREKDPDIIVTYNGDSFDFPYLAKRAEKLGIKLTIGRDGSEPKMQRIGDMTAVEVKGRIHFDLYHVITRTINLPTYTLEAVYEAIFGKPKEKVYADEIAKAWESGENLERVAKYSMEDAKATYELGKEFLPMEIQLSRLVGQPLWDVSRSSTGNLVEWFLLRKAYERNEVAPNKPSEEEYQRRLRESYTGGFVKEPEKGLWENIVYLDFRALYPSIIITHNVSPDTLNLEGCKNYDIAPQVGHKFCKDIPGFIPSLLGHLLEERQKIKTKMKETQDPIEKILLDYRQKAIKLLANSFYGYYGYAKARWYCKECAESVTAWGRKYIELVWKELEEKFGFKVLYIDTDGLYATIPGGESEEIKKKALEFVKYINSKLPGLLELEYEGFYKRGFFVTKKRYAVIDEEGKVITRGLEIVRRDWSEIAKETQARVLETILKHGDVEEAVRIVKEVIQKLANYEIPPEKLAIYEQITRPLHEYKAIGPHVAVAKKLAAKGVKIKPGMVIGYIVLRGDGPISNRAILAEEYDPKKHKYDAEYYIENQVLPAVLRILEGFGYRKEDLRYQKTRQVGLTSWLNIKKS
Protocol: The effect produced by the addition of oxalate ion in PCR was investigated using nPfu polymerase. A PCR buffer (20 mM Tris-HCl (pH 8.75), 10 mM KCl, 10 mM (NH4) 2SO4, 2 mM MgSO4, 0.1% Triton X-100, 100 μg/ml BSA) attached to nPfu (STRATAGENE), 0.2 mM of dNTPs, and 0.3 μM of a pair of primers of SEQ ID NOs:12, and 13 were used. PCR was performed by using 2.5 U nPfu DNA polymerase and 20 ng of genomic DNA derived from human cell line K562 as a template, with the influence on the PCR result caused by varying the concentration of oxalate ion being investigated. PCR was performed by using GeneAmp2400 (PE Applied Biosystems) with the following conditions: 1 preliminary reaction of 94° C. for 2 minutes, and then 35 cycles of 94° C. for 15 seconds, 60° C. for 30 seconds and 68° C. for 8 minutes.
Salts (potassium chloride, potassium acetate, potassium oxalate, potassium sulfate) were tested for their effectiveness in PCR using nPfu DNA polymerase under the same conditions as Example 1-5.

Taq DNA polymerase = target: T3, Taq DNA polymerase (Thermus aquaticus, UniProt P19821); test: PCR using Taq DNA polymerase with added oxalate ion (Example 1-4); type: biochemical; conditions: for PCR amplification of 4.5-kb DNA of myelin oligodendrocyte glycoprotein: FIG. 5; for PCR amplification of 3.6-kb DNA of β-globin: FIG. 4
T3 construct: purchased TOYOBO CO., LTD
Protocol: The effect produced by the addition of oxalate ions was investigated in PCR using Taq DNA polymerase. A PCR buffer (10 mM Tris-HCl (pH 8.3), 50 mM KCl, 1.5 mM MgCl2) attached to Taq (TOYOBO CO., LTD.), 0.2 mM dNTPs and 0.3 μM of a primer pair were used. A pair of primers of SEQ ID Nos:10 and 11 was used for the PCR amplification of a 3.6-kb DNA of β-globin cluster (the electrophoresis pattern of its PCR product is shown in FIG. 4), while a pair of primers of SEQ ID Nos:12 and 13 was used for the PCR amplification of a 4.5-kb DNA of myelin oligodendrocyte glycoprotein (the electrophoresis pattern of its PCR product is shown in FIG. 5). The influence of varying the concentration of oxalate ions added on the PCR results was investigated using 2.5 U Taq DNA polymerase and 20 ng of Genomic DNA derived from cultured human cell K562 as a template. The PCR conditions were as follows: 94° C. for 2 minutes as 1 preliminary reaction, and then 30 cycles of 94° C. for 15 seconds, 60° C. for 30 seconds and 68° C. for 8 minutes. The PCR amplification was performed by using GeneAmp 2400 (PE Applied Biosystems).

KOD-plus DNA polymerase [2] = target: T1, KOD-plus DNA polymerase; type: biochemical, Thermococcus kodakaraensis KOD1; conditions: for amplification of target DNA (electrophoresis pattern): salt at 6 mM of ion equivalent, FIG. 9; for effect on extra bands: FIG. 10
[3] = K562 genomic DNA template, FIG. 1

T3 sequence (P19821 whole entry): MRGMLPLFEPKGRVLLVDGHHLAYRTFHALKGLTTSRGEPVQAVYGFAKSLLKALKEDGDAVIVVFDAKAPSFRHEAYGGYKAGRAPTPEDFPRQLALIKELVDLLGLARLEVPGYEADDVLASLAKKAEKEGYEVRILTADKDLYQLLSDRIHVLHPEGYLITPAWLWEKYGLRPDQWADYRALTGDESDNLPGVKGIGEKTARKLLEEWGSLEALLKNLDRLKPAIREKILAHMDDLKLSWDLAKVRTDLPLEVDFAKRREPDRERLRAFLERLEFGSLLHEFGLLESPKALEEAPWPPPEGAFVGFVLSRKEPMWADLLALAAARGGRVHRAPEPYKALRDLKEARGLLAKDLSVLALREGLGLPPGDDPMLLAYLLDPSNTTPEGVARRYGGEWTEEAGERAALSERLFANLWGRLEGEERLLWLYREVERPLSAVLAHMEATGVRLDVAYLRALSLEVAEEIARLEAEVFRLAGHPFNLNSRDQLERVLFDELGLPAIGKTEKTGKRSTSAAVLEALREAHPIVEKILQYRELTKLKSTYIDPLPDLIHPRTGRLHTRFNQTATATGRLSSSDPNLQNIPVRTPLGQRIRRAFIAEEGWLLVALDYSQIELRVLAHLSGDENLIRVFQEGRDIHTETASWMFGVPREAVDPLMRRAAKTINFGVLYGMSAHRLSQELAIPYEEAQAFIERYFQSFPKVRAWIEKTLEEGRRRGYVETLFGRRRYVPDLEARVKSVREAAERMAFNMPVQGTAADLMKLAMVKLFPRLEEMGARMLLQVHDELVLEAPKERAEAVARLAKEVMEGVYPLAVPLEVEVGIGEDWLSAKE
T1 sequence (P77933 other isoform, or with tags, fused parts or gaps DEL407-766/DEL853-1389): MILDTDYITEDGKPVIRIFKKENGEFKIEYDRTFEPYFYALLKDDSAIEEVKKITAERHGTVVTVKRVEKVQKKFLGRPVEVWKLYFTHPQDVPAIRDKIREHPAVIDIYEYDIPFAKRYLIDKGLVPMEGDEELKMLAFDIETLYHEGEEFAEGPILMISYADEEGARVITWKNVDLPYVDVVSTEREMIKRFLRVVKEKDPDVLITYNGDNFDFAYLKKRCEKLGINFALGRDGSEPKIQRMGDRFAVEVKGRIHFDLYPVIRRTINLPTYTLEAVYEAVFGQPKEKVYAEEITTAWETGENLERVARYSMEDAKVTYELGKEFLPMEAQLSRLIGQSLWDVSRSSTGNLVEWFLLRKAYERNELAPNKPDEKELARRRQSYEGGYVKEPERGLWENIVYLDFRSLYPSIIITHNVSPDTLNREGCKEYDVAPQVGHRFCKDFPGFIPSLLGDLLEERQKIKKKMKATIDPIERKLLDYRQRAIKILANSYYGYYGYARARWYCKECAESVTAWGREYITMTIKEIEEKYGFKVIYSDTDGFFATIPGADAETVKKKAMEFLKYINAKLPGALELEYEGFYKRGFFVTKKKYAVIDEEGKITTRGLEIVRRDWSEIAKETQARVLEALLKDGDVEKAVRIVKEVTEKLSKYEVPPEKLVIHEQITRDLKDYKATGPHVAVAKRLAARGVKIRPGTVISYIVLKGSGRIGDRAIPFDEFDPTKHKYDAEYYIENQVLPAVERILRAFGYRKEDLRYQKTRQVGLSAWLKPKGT

`O=C(O)C(=O)O` [oxalate ion] was tested, and the “concentration range within which the effect of the addition of oxalate ion is found” value (KOD-plus DNA polymerase [1]) was “up to 5 mM”, the “concentration range of oxalate ion within which the effect of the addition is found” value (EX-Taq DNA polymerase) was “up to 4 mM” and the “oxalate ion amount at which amplification of the target DNA was confirmed” value (EX-Taq DNA polymerase; [3]) was 1 to 4 mM. The “oxalate ion concentration at which the amount of amplification was the highest” value (EX-Taq DNA polymerase; [3]) was 2 to 3 mM, the “concentration range within which the effect of the addition of oxalate ion is found” value (nPfu DNA polymerase) was “up to 5 mM” and the “oxalate ion concentration at which amplification of the target DNA was observed” value (nPfu DNA polymerase; FIG. 6) was 2 to 5 mM. For the same molecule, the “concentration range within which the effect of the addition of oxalate ion is found” value (Taq DNA polymerase) was “up to 5 mM”, the “PCR amplification of 4.5-kb DNA of myelin oligodendrocyte glycoprotein” value (Taq DNA polymerase; 1 mM oxalate ion) was “amplification of the target DNA was observed together with a smear” and the “PCR amplification of 3.6-kb DNA of β-globin” value (Taq DNA polymerase; 2 mM oxalate ion) was “amplification of the target sequence was observed together with a smear”. For the same molecule, the “PCR amplification of 4.5-kb DNA of myelin oligodendrocyte glycoprotein” value (Taq DNA polymerase; 2 mM oxalate ion) was “no smear was observed”, the “PCR amplification of 3.6-kb DNA of β-globin” value (Taq DNA polymerase; 4 mM oxalate ion) was “no smear was observed” and the “oxalate ion concentration giving a discrete amplification band” value (Taq DNA polymerase; 3.6-kb DNA of β-globin) was 4 to 5 mM. The “oxalate ion concentration giving a discrete amplification band” value (Taq DNA polymerase; 4.5-kb DNA of myelin oligodendrocyte glycoprotein) was 2 to 5 mM.
In the case of `CC(=O)[O-].[K+]` [potassium acetate, reference compound], the “amplification of target DNA (electrophoresis pattern)” value (shortened to “amplification of target DNA”) (nPfu DNA polymerase) was “amplification of the target DNA was not observed” and the “amplification of target DNA” value (KOD-plus DNA polymerase [2]) was “Amplification of the target DNA was not observed”.
With `[Cl-].[K+]` [potassium chloride, reference compound] the “amplification of target DNA” value (nPfu DNA polymerase) was “amplification of the target DNA was not observed” and the “amplification of target DNA” value (KOD-plus DNA polymerase [2]) was “Amplification of the target DNA was not observed”.
`O=C[O-].[K+]` [potassium formate, reference compound] was tested, and the “amplification of target DNA” value (EX-Taq DNA polymerase; carboxylate salts, FIG. 3) was “A similar effect to that produced by oxalate salts was not observed”.
With `O=C([O-])CCC(=O)[O-].[K+].[K+]` [potassium succinate, reference compound] the “amplification of target DNA” value (EX-Taq DNA polymerase; carboxylate salts, FIG. 3) was “A similar effect to that produced by oxalate salts was not observed”.
`O=S(=O)([O-])[O-].[K+].[K+]` [potassium sulfate, reference compound] was tested, and the “amplification of target DNA” value (nPfu DNA polymerase) was “amplification of the target DNA was not observed” and the “amplification of target DNA” value (KOD-plus DNA polymerase [2]) was “Amplification of the target DNA was not observed”.
In the case of `O=C([O-])/C=C\C(=O)[O-].[Na+].[Na+]` [sodium maleate], the “effect on extra bands” value (KOD-plus DNA polymerase [2]; 4 mM salt) was “extra bands tended to decrease” and the “effect on extra bands” value (KOD-plus DNA polymerase [2]; 10 mM salt) was “most of the extra bands disappeared”.
For `O=C([O-])CC(=O)[O-].[Na+].[Na+]` [sodium malonate], the “effect on extra bands” value (KOD-plus DNA polymerase [2]; 2 mM salt) was “the extra bands tended to decrease” and the “effect on extra bands” value (KOD-plus DNA polymerase [2]; 6 mM salt) was “most of the extra bands disappeared”.
With `O=C([O-])C(=O)[O-].[Na+].[Na+]` [sodium oxalate] the “amplification of target DNA” value (EX-Taq DNA polymerase; carboxylate salts, FIG. 3) was “amplification of the target DNA was observed”, the “amplification of target DNA” value (EX-Taq DNA polymerase; salt at 4 to 6 mM of ion equivalent, FIG. 2) was “Amplification was observed” and the “amplification of target DNA” value (KOD-plus DNA polymerase [2]) was “Amplification was observed”.
